Data reported in patent US8716296B2 (Ingenium Pharmaceuticals GmbH, priority 2007, dated 2014).

How the values were obtained:
SNI mice = test: Spared nerve injury (SNI) model of chronic neuropathic pain, von Frey assay; type: in vivo, mice (strain C3HeB/FeJ); settings: 30 mg/kg p.o., 30 min before measurement, day 107 post SNI, versus vehicle
From the text: As outlined above, the spared nerve injury (SNI) model (see FIG. 1) involves a lesion of two of the three terminal branches of the sciatic nerve (tibial and common peroneal nerves) of experimental animals, leaving the sural nerve intact. SNI results in mechanical and thermal allodynia in the non-injured sural nerve skin territory (Decosterd and Woolf, Pain 2000; 87:149-158. (2) Tsujino et al., Mol. Cel. Neurosci. 2000; 15:170-182).
Wildtype mice (strain C3HeB/FeJ) (age, sex and weight matched) were anesthetized with Hypnorm (0.315 mg/ml fentanyl citrate+10 mg/ml fluanisone; Janssen)/Hypnovel (5 mg/ml midazolam; Roche Applied Sciences)/water at a ratio of 1:1:2 at 4 μl/g prior to surgical preparation. […]
30 mg/kg of a CDK inhibitor, dissolved in 400 μl of 2% Hydroxprolylcellulose; 0.25% Lactic Acid (85% solution) was administered via per oral application 30 min prior to von Frey measurements (mechanical allodynia). […] Reflex nociceptive responses to mechanical stimulation were measured in a von Frey assay 30 min after each injection. […]
Mechanical thresholds of SNI mice were quantified using the up-down method based on Chaplan et al. (1994) and Malmberg and Basbaum (1998). […]

LPS induced mice = test: LPS in vivo assay, model of cytokine repression in vivo; parameters: species or system mice (strain C3HeB/FeJ); settings: 10 or 30 mg/kg i.p. 30 min prior to LPS, blood 90 min after LPS, ELISA, versus vehicle
Method: For the LPS induced model of septic shock, mice receive an intraperitoneal (i.p.) injection of 30 μg bacterial Lipopolysaccharide (LPS; L2630 SIGMA) in saline. Said LPS-mediated initiation of the inflammatory signalling cascade results in increasing blood serum concentrations of cytokines such as e.g. TNFα, IL-6 and IL1β. Blood can be taken from these animals at defined time points. Thereafter, serum will be separated and the samples can be stored at −80° C. until cytokine concentrations are measured using commercial ELISA assays. (A L Moreira et al., Braz J Med Biol Res 1997; 30:1199-1207).
Wildtype mice (strain C3HeB/FeJ) (age, sex and weight matched) were injected with 30 μg LPS (SIGMA) intraperitoneally. 90 minutes after LPS administration these animals were anaesthetized with 0.1 m1/10 g bodyweight Ketamine-Rompun (50/20 mg/ml), and blood for serum preparation was taken via cardiac puncture.
Pharmacological treatment groups (n=4) of LPS mice received intraperitoneal (i. p.) injections of CDK-inhibiting compounds or the vehicle (negative control), respectively. In particular, compounds #1A and 16A were administered.
10 or 30 mg/kg (compound per bodyweight) of a CDK inhibitor, dissolved in 20% DMSO, 5% Tween 80, 10% Tris 1M pH8, 20% PEG400, 45% PBS was administered as a single dosage 30 min prior to LPS stimulation. Vehicle control was administered in the same manner.
90 minutes (min) after LPS stimulation, blood samples were taken from the mice. Previously, the 90 min time point had been identified as the peak of TNF alpha expression in this animal model by a time course experiment.
Blood samples (˜500 μl/animal) from the LPS animals were incubated on wet ice for 30 min after cardiac puncture. Afterwards the samples were centrifuged for 15 min at 13.000 rpm. Serum was separated from the clot and stored frozen at −80° C.
Serum concentrations of TNF alpha and IL6 within the samples were measured by using commercial ELISA Kits (Natutec) according to the manufacturers instructions.

[1] = test system: LPS induced THP-1 macrophages; test: In vitro THP-1 assay, model of cytokine inhibition; type: cell-based, human; settings: differentiated THP-1 cells, 60 min pre-incubation, LPS 4-48 h, ELISA, versus vehicle (DMSO)
Method: The human THP-1 cell line can be utilized as an in vitro model of cytokine expression as mediated by Lipopolysaccharide (LPS) or Tumor Necrosis Factorα [TNFα].
Monocytic THP-1 cells (ATCC; TIB-202) can be differentiated into macrophage-like cells expressing pro-inflammatory cytokines like TNFα, IL6 and IL1β upon induction with LPS or by TNFα (autocrine induction) itself.
THP-1 cells are grown in modified RPMI-1640 medium (ATCC, Cat. No. 30-2001) supplemented with 10% FCS and 1% Pen/Strep. For cytokine inhibition assays, cells are seeded at a density of 5×10^5 cells/ml into 6-well plates in standard growth medium supplemented with 100 ng/ml PMA (Sigma, P1585) to induce differentiation into macrophage-like cells. After 24 hours, the medium is replaced with standard growth medium (without PMA) and the cells are incubated for another 48 hours to complete differentiation.
After 72 h of differentiation, the medium is replaced with serum free growth medium, and CDK-inhibiting compounds as well as reference compounds such as positive and negative controls, each dissolved in DMSO are added at concentrations ranging from 0.5 to 5 μM (final concentration of DMSO in the well is 0.1%). Cells are incubated for 60 min with compounds prior to stimulation with 100 ng/ml LPS (Sigma, L2630) for another 4-48 hours. Supernatants are collected and assayed immediately for cytokine expression, e.g. for TNFα, IL-6 and IL-1b using commercially available sandwich ELISA assays (eBioscience, Cat. No 88-7346, 88-7066, 88-7010) or kept frozen at […] until evaluation.
Concentrations of TNFα, IL6 and IL1β within the cell culture supernatants are measured by using commercial ELISA Kits (eBioscience) according to the manufacturers instructions.
CDK-inhibitory compounds #1A, 16A, 20A, and 25A were administered to differentiated THP-1 cells in triplicates as described above (see section 2.). After 60 min of pre-incubation with test or reference compound (SB203580, a p38 inhibitor and BMS345541, an IKK-inhibitor) alone, cells were stimulated with LPS. After incubation for 4-48 h, supernatants were collected and ELISA based determinations of cytokine supernatant concentrations were performed as described in section 3, supra.

SMILES	paw withdrawal threshold to mechanical stimulation (von Frey) (SNI mice)	IL6 protein concentration in the blood serum (LPS induced mice)	TNFα protein concentration in the blood serum (LPS induced mice)	IL6 protein concentration in the cell supernatant [1]	TNFα protein concentration in the cell supernatant [1]
COc1ccccc1-c1cc(NC(=O)C2CCCNC2)ncn1 (stereo not drawn) [Compound 16A, Piperidine-3-carboxylic acid [6-(2-methoxy-phenyl)-pyrimidin-4-yl]amide]	significant increase of threshold values	significant repressive effect	significant repressive effect	significant inhibitory effect	significant inhibitory effect
CCOc1ccccc1-c1cc(NC(=O)C2CCNCC2)ncn1 [Compound 1A, Piperidine-4-carboxylic acid [6-(2-ethoxy-phenyl)-pyrimidin-4-yl]-amide]	–	significant repressive effect	significant repressive effect	significant inhibitory effect	significant inhibitory effect
